This note sets out measurements from patent publication US9393271B2, “GHRH agonists for islet cell transplantation and function and the treatment of diabetes” (UNIVERSITY OF MIAMI, priority 2012, dated 2016).

Non-standard residues stand in square brackets, D forms with d. Residues, ends and D or L forms follow the SMILES beside them. ξ: configuration not given here. *: point of attachment. Phe(F5) = N[C@@H](Cc1c(F)c(F)c(F)c(F)c1F)C(=O)O; Desaminotyrosyl = O=C(CCc1ccc(O)cc1)*; NMeY = CN[C@@H](Cc1ccc(O)cc1)C(=O)O; Agmatine = N=C(N)NCCCCN*; Nle = CCCC[C@H](N)C(=O)O; Orn = NCCC[C@H](N)C(=O)O; Abu = CC[C@H](N)C(=O)O; Ava = NCCCCC(=O)O; GABA = NCCCC(=O)O; ξA = CC(N)C(=O)O

The target in this test is T1, GHRH receptor (human pituitary membrane homogenates) (Homo sapiens, UniProt Q02643).
T1 sequence (Q02643 23-423): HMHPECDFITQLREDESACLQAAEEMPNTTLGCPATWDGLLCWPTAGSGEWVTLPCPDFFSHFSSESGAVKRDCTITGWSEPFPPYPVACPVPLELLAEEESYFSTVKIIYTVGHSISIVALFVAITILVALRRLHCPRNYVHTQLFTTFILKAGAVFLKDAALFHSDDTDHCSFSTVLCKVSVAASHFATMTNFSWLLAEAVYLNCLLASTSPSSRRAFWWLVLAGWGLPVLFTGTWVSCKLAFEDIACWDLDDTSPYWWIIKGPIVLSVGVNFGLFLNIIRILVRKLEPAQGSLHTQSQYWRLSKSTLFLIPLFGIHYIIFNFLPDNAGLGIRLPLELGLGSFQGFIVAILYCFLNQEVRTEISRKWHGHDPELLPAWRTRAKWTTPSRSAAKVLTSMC
Nature of the test: GHRH receptor binding, ligand competition with 125I-labeled JV-1-42 (Table 7). Set-up: Normal human pituitaries were purchased from the National Hormone and Peptide Program; tissue National Hormone and Peptide Program (A. F. Parlow, Harbor-UCLA Medical Center, Torrance, Calif.); host or cells: normal human pituitary, membrane fraction / homogenate. The following applies: JI-38 = 1.
As to `CCCC[C@H](NC(=O)[C@@H](NC(=O)[C@H](CC(=O)O)NC(=O)[C@H](CCC(N)=O)NC(=O)[C@H](CC(C)C)NC(=O)[C@H](CC(C)C)NC(=O)[C@H](CCCN)NC(=O)[C@H](CCCNC(=N)N)NC(=O)[C@H](C)NC(=O)[C@H](CO)NC(=O)[C@H](CC(C)C)NC(=O)[C@H](CCC(N)=O)NC(=O)[C@H](CC)NC(=O)[C@H](CC(C)C)NC(=O)[C@@H](NC(=O)[C@H](CCCN)NC(=O)[C@H](CCCNC(=N)N)NC(=O)[C@H](Cc1ccc(O)cc1)NC(=O)[C@H](CO)NC(=O)[C@H](CC(N)=O)NC(=O)[C@@H](NC(=O)[C@H](Cc1ccccc1)NC(=O)[C@@H](NC(=O)[C@H](C)NC(=O)[C@H](CC(=O)O)NC(=O)[C@@H](C)NC(=O)CCc1ccc(O)cc1)[C@@H](C)CC)[C@@H](C)O)C(C)C)[C@@H](C)CC)C(=O)N[C@@H](CC(=O)O)C(=O)N[C@@H](CCCNC(=N)N)C(=O)NC` [Peptide P-27400, [Dat^1, D-Ala^2, Orn^12, Abu^15, Orn^21, Nle^27, Asp^28]hGHRH(1-29)NH—CH3] (Desaminotyrosyl-[dA]DAIFTNSYR[Orn]VL[Abu]QLSAR[Orn]LLQDI[Nle]DR-NHMe), the “Relative affinitiy (Binding potency) vs JI-38” value (from here on “Relative affinitiy”) stood at 1.30.
The result for `CCCC[C@H](NC(=O)[C@@H](NC(=O)[C@H](CC(=O)O)NC(=O)[C@H](CCC(N)=O)NC(=O)[C@H](CC(C)C)NC(=O)[C@H](CC(C)C)NC(=O)[C@H](CCCN)NC(=O)[C@H](CCCNC(=N)N)NC(=O)[C@H](C)NC(=O)[C@H](CO)NC(=O)[C@H](CC(C)C)NC(=O)[C@H](CCC(N)=O)NC(=O)[C@H](CC)NC(=O)[C@H](CC(C)C)NC(=O)[C@@H](NC(=O)[C@H](CCCN)NC(=O)[C@H](CCCNC(=N)N)NC(=O)[C@H](Cc1ccc(O)cc1)NC(=O)[C@H](CO)NC(=O)[C@H](CC(N)=O)NC(=O)[C@@H](NC(=O)[C@H](Cc1c(F)c(F)c(F)c(F)c1F)NC(=O)[C@@H](NC(=O)[C@H](C)NC(=O)[C@H](CC(=O)O)NC(=O)[C@@H](C)NC(=O)[C@H](Cc1ccc(O)cc1)NC)[C@@H](C)CC)[C@@H](C)O)C(C)C)[C@@H](C)CC)C(=O)N[C@@H](CO)C(=O)N[C@@H](CCCNC(=N)N)C(=O)NCCCC(=O)NC` [Peptide P-27414, [N—Me-Tyr^1, D-Ala^2, Fpa5^6, Orn^12, Abu^15, Orn^21, Nle^27, Gab^30]hGHRH(1-30)NH—CH3] (H-[NMeY][dA]DAI[Phe(F5)]TNSYR[Orn]VL[Abu]QLSAR[Orn]LLQDI[Nle]SR[GABA]-NHMe) reads 2.79.
For the compound `CCCC[C@H](NC(=O)[C@@H](NC(=O)[C@H](CC(=O)O)NC(=O)[C@H](CCC(N)=O)NC(=O)[C@H](CC(C)C)NC(=O)[C@H](CC(C)C)NC(=O)[C@H](CCCN)NC(=O)[C@H](Cc1c[nH]cn1)NC(=O)[C@H](C)NC(=O)[C@H](CO)NC(=O)[C@H](CC(C)C)NC(=O)[C@H](CCC(N)=O)NC(=O)[C@H](CC)NC(=O)[C@H](CC(C)C)NC(=O)[C@@H](NC(=O)[C@H](CCCN)NC(=O)[C@H](Cc1c[nH]cn1)NC(=O)[C@H](Cc1ccc(O)cc1)NC(=O)[C@H](CO)NC(=O)[C@H](CCC(N)=O)NC(=O)[C@@H](NC(=O)[C@H](Cc1ccccc1)NC(=O)[C@@H](NC(=O)[C@H](C)NC(=O)[C@H](CC(=O)O)NC(=O)C(C)NC(=O)CCc1ccc(O)cc1)[C@@H](C)CC)[C@@H](C)O)C(C)C)[C@@H](C)CC)C(=O)N[C@@H](CC(=O)O)C(=O)N[C@@H](CCCNC(=N)N)C(=O)NC` (some centres unmarked) [Peptide P-27413, [Dat^1, Gln^8, His^11, Orn^12, Abu^15, His^20, Orn^21, Nle^27, Asp^28]hGHRH(1-29)NH—CH3] (Desaminotyrosyl-[ξA]DAIFTQSYH[Orn]VL[Abu]QLSAH[Orn]LLQDI[Nle]DR-NHMe), the “Relative affinitiy” value was found to be 1.78.
To `CCCC[C@H](NC(=O)[C@@H](NC(=O)[C@H](CC(=O)O)NC(=O)[C@H](CCC(N)=O)NC(=O)[C@H](CC(C)C)NC(=O)[C@H](CC(C)C)NC(=O)[C@H](CCCN)NC(=O)[C@H](CCCNC(=N)N)NC(=O)[C@H](C)NC(=O)[C@H](CO)NC(=O)[C@H](CC(C)C)NC(=O)[C@H](CCC(N)=O)NC(=O)[C@H](CC)NC(=O)[C@H](CC(C)C)NC(=O)[C@@H](NC(=O)[C@H](CCCN)NC(=O)[C@H](CCCNC(=N)N)NC(=O)[C@H](Cc1ccc(O)cc1)NC(=O)[C@H](CO)NC(=O)[C@H](CCC(N)=O)NC(=O)[C@@H](NC(=O)[C@H](Cc1ccccc1)NC(=O)[C@@H](NC(=O)[C@H](C)NC(=O)[C@H](CC(=O)O)NC(=O)[C@@H](C)NC(=O)CCc1ccc(O)cc1)[C@@H](C)CC)[C@@H](C)O)C(C)C)[C@@H](C)CC)C(=O)N[C@@H](CC(=O)O)C(=O)N[C@@H](CCCNC(=N)N)C(=O)NC` [Peptide P-27408, [Dat^1, D-Ala^2, Gln^8, Orn^12, Abu^15, Orn^21, Nle^27, Asp^28]hGHRH(1-30)NH—CH3] (Desaminotyrosyl-[dA]DAIFTQSYR[Orn]VL[Abu]QLSAR[Orn]LLQDI[Nle]DR-NHMe) belongs 7.91.
The result for `CCCC[C@H](NC(=O)[C@@H](NC(=O)[C@H](CC(=O)O)NC(=O)[C@H](CCC(N)=O)NC(=O)[C@H](CC(C)C)NC(=O)[C@H](CC(C)C)NC(=O)[C@H](CCCN)NC(=O)[C@H](CCCNC(=N)N)NC(=O)[C@H](C)NC(=O)[C@H](CO)NC(=O)[C@H](CC(C)C)NC(=O)[C@H](CCC(N)=O)NC(=O)[C@H](CC)NC(=O)[C@H](CC(C)C)NC(=O)[C@@H](NC(=O)[C@H](CCCN)NC(=O)[C@H](CCCNC(=N)N)NC(=O)[C@H](Cc1ccc(O)cc1)NC(=O)[C@H](CO)NC(=O)[C@H](CCC(N)=O)NC(=O)[C@@H](NC(=O)[C@H](Cc1ccccc1)NC(=O)[C@@H](NC(=O)[C@H](C)NC(=O)[C@H](CC(=O)O)NC(=O)[C@@H](C)NC(=O)[C@H](Cc1ccc(O)cc1)NC)[C@@H](C)CC)[C@@H](C)O)C(C)C)[C@@H](C)CC)C(=O)N[C@@H](CC(=O)O)C(=O)NCCCCNC(=N)N` [Peptide P-20361, [N—Me-Tyr^1, D-Ala^2, Gln^8, Orn^12, Abu^15, Orn^21, Nle^27, Asp^28, Agm^29] hGHRH(1-29)] (H-[NMeY][dA]DAIFTQSYR[Orn]VL[Abu]QLSAR[Orn]LLQDI[Nle]D-Agmatine) reads 5.30.
With `CCCC[C@H](NC(=O)[C@@H](NC(=O)[C@H](CC(=O)O)NC(=O)[C@H](CCC(N)=O)NC(=O)[C@H](CC(C)C)NC(=O)[C@H](CC(C)C)NC(=O)[C@H](CCCN)NC(=O)[C@H](CCCNC(=N)N)NC(=O)[C@H](C)NC(=O)[C@H](CO)NC(=O)[C@H](CC(C)C)NC(=O)[C@H](CCC(N)=O)NC(=O)[C@H](CC)NC(=O)[C@H](CC(C)C)NC(=O)[C@@H](NC(=O)[C@H](CCCN)NC(=O)[C@H](CCCNC(=N)N)NC(=O)[C@H](Cc1ccc(O)cc1)NC(=O)[C@H](CO)NC(=O)[C@H](CCC(N)=O)NC(=O)[C@@H](NC(=O)[C@H](Cc1ccccc1)NC(=O)[C@@H](NC(=O)[C@H](C)NC(=O)[C@H](CC(=O)O)NC(=O)[C@H](C)NC(=O)CCc1ccc(O)cc1)[C@@H](C)CC)[C@@H](C)O)C(C)C)[C@@H](C)CC)C(=O)N[C@@H](CC(=O)O)C(=O)N[C@@H](CCCNC(=N)N)C(=O)NC` [Peptide P-27407, [Dat^1, Gln^8, Orn^12, Abu^15, Orn^21, Nle^27, Asp^28]hGHRH(1-29)NH—CH3] (Desaminotyrosyl-ADAIFTQSYR[Orn]VL[Abu]QLSAR[Orn]LLQDI[Nle]DR-NHMe), the “Relative affinitiy” value is 1.45.
The result for `CCCC[C@H](NC(=O)[C@@H](NC(=O)[C@H](CC(=O)O)NC(=O)[C@H](CCC(N)=O)NC(=O)[C@H](CC(C)C)NC(=O)[C@H](CC(C)C)NC(=O)[C@H](CCCN)NC(=O)[C@H](CCCNC(=N)N)NC(=O)[C@H](C)NC(=O)[C@H](CO)NC(=O)[C@H](CC(C)C)NC(=O)[C@H](CCC(N)=O)NC(=O)[C@H](CC)NC(=O)[C@H](CC(C)C)NC(=O)[C@@H](NC(=O)[C@H](CCCN)NC(=O)[C@H](CCCNC(=N)N)NC(=O)[C@H](Cc1ccc(O)cc1)NC(=O)[C@H](CO)NC(=O)[C@H](CC(N)=O)NC(=O)[C@@H](NC(=O)[C@H](Cc1ccccc1)NC(=O)[C@@H](NC(=O)[C@H](C)NC(=O)[C@H](CC(=O)O)NC(=O)[C@H](C)NC(=O)[C@H](Cc1ccc(O)cc1)NC)[C@@H](C)CC)[C@@H](C)O)C(C)C)[C@@H](C)CC)C(=O)N[C@@H](CO)C(=O)N[C@@H](CCCNC(=N)N)C(=O)NCCCC(=O)NC` [Peptide P-27415, [N—Me-Tyr^1, Orn^12, Abu^15, Orn^21, Nle^27, Gab^30]hGHRH(1-30)NH—CH3] (H-[NMeY]ADAIFTNSYR[Orn]VL[Abu]QLSAR[Orn]LLQDI[Nle]SR[GABA]-NHMe) reads 1.44; that for `CCCC[C@H](NC(=O)[C@@H](NC(=O)[C@H](CC(=O)O)NC(=O)[C@H](CCC(N)=O)NC(=O)[C@H](CC(C)C)NC(=O)[C@H](CC(C)C)NC(=O)[C@H](CCCN)NC(=O)[C@H](CCCNC(=N)N)NC(=O)[C@H](C)NC(=O)[C@H](CO)NC(=O)[C@H](CC(C)C)NC(=O)[C@H](CCC(N)=O)NC(=O)[C@H](CC)NC(=O)[C@H](CC(C)C)NC(=O)[C@@H](NC(=O)[C@H](CCCN)NC(=O)[C@H](CCCNC(=N)N)NC(=O)[C@H](Cc1ccc(O)cc1)NC(=O)[C@H](CO)NC(=O)[C@H](CCC(N)=O)NC(=O)[C@@H](NC(=O)[C@H](Cc1ccccc1)NC(=O)[C@@H](NC(=O)[C@H](C)NC(=O)[C@H](CC(=O)O)NC(=O)[C@H](C)NC(=O)CCc1ccc(O)cc1)[C@@H](C)CC)[C@@H](C)O)C(C)C)[C@@H](C)CC)C(=O)N[C@@H](CC(=O)O)C(=O)N[C@@H](CCCNC(=N)N)C(=O)NCCCCC(N)=O` [Peptide P-22327, [Dat^1, Gln^8, Orn^12, Abu^15, Orn^21, Nle^27, Asp^28, Apa^30]hGHRH(1-30)NH2] (Desaminotyrosyl-ADAIFTQSYR[Orn]VL[Abu]QLSAR[Orn]LLQDI[Nle]DR[Ava]-NH2), 2.18.
